Results published in ChEMBL document CHEMBL1201862, “PubChem BioAssay data set” (2004).
Activity calls are given as the source filed them.

Key:
[1] = target: Genome polyprotein (dengue virus type 2, UniProt P29990); test: Dengue-2 NS5 methyltransferase inhibitors, primary screen, biochemical, confirmation dose response (AID 588689); assay type: functional
[2] = target: T1, RNA-binding protein pos-1 (Caenorhabditis elegans, UniProt G5EF15); test: inhibitors of POS-1/mex-3 RNA binding, dose response, biochemical, fluorescence polarization (AID 1964);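 further: purified POS-1 fused to maltose binding protein made in E. coli; potency of compounds blocking POS-1 binding to fluorescent RNA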
T1 sequence (G5EF15 whole entry): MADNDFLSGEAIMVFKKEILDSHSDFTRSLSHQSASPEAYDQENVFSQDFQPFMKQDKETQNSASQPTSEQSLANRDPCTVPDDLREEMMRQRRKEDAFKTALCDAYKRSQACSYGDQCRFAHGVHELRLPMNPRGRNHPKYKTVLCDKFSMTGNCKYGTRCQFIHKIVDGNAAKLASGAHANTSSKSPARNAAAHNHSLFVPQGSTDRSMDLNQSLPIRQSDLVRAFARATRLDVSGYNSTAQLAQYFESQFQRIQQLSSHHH

[3] = target: T2, Endoribonuclease toxin MazF (Escherichia coli K-12, UniProt P0AE70); test: fluorescent RNA oligo signal without MazF, dose response, counter-screen for MazEF activator project, biochemical, fluorescence, single-stranded RNase substrate (AID 588502); assay type: functional
T2 sequence (P0AE70 whole entry): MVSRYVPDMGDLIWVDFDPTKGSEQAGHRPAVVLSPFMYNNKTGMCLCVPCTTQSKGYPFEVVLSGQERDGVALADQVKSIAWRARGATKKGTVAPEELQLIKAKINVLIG

[4] = target: T3, Zinc finger protein mex-5 (Caenorhabditis elegans, UniProt Q9XUB2); test: MEX-5/TCR-2 RNA interaction inhibitors, dose response, biochemical, C. elegans, fluorescence polarization (AID 1960)
T3 sequence (Q9XUB2 whole entry): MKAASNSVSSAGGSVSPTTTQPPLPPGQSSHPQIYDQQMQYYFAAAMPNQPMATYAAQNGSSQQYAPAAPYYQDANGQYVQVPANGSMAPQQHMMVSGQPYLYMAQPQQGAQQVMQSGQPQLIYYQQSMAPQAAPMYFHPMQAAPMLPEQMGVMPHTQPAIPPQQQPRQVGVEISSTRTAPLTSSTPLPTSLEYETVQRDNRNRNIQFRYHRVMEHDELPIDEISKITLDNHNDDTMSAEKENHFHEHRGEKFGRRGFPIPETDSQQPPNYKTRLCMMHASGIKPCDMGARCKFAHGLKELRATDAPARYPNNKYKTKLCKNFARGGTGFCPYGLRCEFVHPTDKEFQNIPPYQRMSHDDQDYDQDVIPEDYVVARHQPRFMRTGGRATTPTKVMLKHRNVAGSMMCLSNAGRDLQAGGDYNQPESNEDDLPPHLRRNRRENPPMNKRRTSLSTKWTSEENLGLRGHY

[5] = target: T2, Endoribonuclease toxin MazF; test: MazF toxin RNase activators, dose response, biochemical, fluorescence, single-stranded RNA substrate, uHTS hits (AID 588481); assay type: functional
[6] = cells; assay type: functional, cell-based
[7] = cells; assay type: functional, cell-based; remark: listed apart in the source
[8] = target: T4, Corticotropin-releasing factor receptor 2/Corticotropin-releasing factor-binding protein (Homo sapiens, UniProt P24387+Q13324); test: activators of CRF receptor 2 with binding protein – uHTS hits, confirmation (AID 602473); assay type: functional; details: read-out: EC50_Mean
T4 sequence (Q13324 whole entry): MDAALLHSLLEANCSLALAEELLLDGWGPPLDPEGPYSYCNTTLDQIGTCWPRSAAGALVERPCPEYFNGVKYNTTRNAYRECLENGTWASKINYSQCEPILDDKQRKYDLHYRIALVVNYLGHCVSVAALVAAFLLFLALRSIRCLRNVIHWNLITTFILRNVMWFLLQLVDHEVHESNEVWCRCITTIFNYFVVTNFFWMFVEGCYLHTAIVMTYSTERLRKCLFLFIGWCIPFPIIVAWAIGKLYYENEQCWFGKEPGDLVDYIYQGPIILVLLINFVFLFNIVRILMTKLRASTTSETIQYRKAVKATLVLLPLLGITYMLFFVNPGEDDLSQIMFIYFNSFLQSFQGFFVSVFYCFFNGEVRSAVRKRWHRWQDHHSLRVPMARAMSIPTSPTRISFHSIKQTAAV
T4 sequence (P24387 whole entry): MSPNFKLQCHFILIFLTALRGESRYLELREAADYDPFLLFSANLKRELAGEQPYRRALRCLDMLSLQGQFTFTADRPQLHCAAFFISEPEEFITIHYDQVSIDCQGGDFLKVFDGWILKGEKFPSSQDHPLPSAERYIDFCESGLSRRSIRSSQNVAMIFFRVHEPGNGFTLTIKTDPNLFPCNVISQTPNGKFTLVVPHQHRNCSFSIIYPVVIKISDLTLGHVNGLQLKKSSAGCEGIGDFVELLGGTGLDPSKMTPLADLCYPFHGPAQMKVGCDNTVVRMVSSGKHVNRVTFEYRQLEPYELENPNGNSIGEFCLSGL

[9] = system: HEK293; test: cells; assay type: functional, cell-based; details: Homo sapiens
[10] = system: HEK293; test: cells; assay type: functional, cell-based; details: Homo sapiens; remark: listed apart in the source
[11] = system: HEK293; test: NOD2 signaling inhibitors in MDP-stimulated cells, cell-based, uHTS, luminescence (AID 2001); assay type: functional; details: Homo sapiens
[12] = inhibitors of intracellular T. cruzi replication, confirmation, NIH3T3 host cells, beta-gal luminescence (AID 2044); assay type: functional, cell-based;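 further: intracellular parasites grown in NIH/3T3 mouse fibroblasts as host cells; luminescent beta-galactosidase reporter signal from transgenic T. cruzi replicating inside host cells; inhibitors lower the luminescence signal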
[13] = cytotoxicity toward NIH3T3 fibroblasts, dose response, counter-screen, cell-based, ATP luminescence, mouse fibroblasts (AID 2010); assay type: functional;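 further: cells exposed to compound for about 90 hours before reading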
[14] = target: T5, Apoptotic protease-activating factor 1 (Homo sapiens, UniProt O14727); assay type: functional
T5 sequence (O14727 whole entry): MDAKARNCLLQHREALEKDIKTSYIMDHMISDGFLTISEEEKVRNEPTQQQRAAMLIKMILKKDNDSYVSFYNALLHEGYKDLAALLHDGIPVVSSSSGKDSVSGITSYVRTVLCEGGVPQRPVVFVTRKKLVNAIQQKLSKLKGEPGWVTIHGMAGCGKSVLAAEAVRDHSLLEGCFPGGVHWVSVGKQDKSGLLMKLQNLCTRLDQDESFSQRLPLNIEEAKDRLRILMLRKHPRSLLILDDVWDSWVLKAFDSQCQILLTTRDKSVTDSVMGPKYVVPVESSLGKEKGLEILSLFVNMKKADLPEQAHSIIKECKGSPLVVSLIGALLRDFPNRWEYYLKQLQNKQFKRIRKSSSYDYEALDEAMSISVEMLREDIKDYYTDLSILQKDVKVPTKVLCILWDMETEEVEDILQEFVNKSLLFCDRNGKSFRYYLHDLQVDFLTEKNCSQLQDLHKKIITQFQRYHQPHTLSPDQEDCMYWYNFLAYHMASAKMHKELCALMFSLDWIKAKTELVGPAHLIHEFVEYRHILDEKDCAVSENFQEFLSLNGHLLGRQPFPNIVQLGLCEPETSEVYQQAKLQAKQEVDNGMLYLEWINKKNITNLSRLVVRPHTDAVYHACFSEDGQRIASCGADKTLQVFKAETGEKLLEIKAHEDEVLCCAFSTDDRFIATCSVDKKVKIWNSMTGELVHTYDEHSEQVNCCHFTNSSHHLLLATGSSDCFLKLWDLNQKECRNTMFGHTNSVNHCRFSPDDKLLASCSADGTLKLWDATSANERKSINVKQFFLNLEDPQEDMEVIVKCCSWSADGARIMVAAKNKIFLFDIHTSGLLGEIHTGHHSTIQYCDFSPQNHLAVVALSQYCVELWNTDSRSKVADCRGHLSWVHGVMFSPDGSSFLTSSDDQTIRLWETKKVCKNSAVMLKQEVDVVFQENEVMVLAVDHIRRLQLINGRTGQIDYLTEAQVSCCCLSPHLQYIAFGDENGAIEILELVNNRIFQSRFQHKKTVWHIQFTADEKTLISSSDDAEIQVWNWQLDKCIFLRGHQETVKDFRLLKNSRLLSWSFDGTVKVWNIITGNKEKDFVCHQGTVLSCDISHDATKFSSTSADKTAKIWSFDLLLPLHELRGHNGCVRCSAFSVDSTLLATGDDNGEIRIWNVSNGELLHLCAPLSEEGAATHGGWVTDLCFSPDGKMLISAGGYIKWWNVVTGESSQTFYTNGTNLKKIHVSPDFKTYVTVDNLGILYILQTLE

[15] = target: Heat shock protein HSP 90-alpha (Homo sapiens, UniProt P07900); assay type: functional, organism-based
[16] = target: Voltage-dependent T-type calcium channel subunit alpha-1H (Homo sapiens, UniProt O95180); assay type: functional;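 further: channel activity triggered by adding a high calcium stimulation buffer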
Voltage-dependent T-type calcium channel subunit alpha-1H, sequence (O95180 whole entry): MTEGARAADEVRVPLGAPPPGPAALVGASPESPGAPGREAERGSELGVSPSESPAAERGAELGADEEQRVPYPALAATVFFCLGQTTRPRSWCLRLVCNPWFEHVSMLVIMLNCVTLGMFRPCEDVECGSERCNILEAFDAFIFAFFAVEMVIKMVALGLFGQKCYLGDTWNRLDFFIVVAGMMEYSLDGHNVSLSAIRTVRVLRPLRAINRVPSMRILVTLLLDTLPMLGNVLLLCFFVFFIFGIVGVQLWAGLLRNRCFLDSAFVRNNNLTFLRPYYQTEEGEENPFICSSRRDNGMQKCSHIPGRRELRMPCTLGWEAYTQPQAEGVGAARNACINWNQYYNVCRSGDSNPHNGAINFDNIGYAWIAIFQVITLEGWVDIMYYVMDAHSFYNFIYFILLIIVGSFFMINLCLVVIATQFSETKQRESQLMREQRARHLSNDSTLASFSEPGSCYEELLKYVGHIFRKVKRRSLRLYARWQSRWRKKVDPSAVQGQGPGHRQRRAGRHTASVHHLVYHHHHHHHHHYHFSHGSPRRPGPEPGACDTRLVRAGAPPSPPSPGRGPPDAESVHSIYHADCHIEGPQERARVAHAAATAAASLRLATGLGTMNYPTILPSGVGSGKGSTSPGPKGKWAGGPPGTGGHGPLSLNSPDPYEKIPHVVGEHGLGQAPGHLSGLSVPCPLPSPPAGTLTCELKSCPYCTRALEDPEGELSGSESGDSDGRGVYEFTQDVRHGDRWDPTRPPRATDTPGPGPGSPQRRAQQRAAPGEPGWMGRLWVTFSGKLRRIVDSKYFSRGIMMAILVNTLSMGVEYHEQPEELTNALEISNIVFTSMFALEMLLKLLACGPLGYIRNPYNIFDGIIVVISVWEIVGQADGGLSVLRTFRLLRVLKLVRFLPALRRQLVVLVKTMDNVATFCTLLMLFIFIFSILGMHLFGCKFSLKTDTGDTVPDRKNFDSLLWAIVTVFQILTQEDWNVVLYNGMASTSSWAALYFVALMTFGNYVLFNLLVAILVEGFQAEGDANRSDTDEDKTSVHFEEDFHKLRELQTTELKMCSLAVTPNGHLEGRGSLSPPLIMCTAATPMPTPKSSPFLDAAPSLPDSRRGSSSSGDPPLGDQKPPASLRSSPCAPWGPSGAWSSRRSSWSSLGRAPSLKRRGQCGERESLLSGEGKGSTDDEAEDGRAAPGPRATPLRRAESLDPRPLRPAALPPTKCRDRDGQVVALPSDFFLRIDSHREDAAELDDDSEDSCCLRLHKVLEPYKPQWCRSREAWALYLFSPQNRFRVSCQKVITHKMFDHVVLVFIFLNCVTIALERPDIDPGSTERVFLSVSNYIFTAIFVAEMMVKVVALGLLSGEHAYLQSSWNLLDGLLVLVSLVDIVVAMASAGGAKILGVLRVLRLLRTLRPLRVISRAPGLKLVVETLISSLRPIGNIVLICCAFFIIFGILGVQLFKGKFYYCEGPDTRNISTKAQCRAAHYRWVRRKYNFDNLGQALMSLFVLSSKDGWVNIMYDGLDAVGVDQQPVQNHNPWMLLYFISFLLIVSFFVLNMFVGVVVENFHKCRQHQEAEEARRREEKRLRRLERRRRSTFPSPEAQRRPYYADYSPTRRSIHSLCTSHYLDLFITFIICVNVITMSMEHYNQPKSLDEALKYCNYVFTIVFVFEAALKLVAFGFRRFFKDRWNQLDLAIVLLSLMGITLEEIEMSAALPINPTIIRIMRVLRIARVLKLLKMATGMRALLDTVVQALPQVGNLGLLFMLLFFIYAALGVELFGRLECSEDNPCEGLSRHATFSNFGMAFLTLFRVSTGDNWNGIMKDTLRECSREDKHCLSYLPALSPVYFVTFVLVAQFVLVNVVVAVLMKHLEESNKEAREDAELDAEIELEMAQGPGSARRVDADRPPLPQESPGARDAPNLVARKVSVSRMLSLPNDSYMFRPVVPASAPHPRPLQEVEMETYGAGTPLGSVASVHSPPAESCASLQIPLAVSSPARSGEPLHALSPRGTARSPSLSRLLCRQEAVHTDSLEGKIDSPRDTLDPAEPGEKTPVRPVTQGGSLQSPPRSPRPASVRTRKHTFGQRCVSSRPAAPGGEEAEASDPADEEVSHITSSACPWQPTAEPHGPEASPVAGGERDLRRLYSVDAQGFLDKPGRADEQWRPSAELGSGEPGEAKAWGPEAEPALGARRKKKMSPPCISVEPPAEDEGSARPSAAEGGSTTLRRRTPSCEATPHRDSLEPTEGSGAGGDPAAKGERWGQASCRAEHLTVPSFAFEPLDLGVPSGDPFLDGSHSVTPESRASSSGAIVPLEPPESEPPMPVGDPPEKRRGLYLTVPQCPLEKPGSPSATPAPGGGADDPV

Genome polyprotein, sequence (P29990 2492-3391 limits assumed): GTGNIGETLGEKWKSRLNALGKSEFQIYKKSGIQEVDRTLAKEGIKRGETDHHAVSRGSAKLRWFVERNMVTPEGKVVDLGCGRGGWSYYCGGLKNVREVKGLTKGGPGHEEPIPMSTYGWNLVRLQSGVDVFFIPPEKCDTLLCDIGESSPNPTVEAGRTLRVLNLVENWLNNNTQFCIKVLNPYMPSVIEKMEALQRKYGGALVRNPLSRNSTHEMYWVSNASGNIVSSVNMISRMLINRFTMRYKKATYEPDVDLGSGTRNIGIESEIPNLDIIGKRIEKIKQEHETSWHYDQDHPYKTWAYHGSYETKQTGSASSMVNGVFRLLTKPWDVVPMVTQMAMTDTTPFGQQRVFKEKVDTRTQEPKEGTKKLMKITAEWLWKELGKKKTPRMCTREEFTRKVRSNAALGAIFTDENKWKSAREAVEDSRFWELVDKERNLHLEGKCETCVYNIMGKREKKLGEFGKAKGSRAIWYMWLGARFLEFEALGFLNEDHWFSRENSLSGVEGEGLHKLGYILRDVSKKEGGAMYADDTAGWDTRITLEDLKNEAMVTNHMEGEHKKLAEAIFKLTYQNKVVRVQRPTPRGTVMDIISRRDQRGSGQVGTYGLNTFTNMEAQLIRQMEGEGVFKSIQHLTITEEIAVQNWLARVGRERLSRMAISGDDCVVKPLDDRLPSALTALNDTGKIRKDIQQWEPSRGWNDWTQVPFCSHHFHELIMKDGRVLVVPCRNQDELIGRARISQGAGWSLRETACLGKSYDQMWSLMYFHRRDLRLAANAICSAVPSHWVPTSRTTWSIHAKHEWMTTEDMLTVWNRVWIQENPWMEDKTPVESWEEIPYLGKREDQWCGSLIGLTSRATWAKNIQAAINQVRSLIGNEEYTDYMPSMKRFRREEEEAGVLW

NC(=O)COc1ccc(/C=C2\C(=O)ON=C2c2ccccc2)cc1
IC50 [1]: 67.7 µM (active)

Oc1[nH]c2ccccc2c1N=Nc1ccccc1
EC50 [2]: 7.37 µM (inconclusive)
EC50 [3]: 54.6 µM (inactive)
EC50 [4]: 18.3 µM (inconclusive)
EC50 [5]: > 99 µM (inactive)

COc1ccc(CSCC(=O)Nc2ccc(S(=O)(=O)N3CCCCCC3)cc2)cc1
EC50 [6]: > 350 µM (not active)
EC50 [7]: > 350 µM (not active)

O=C(COc1ccccc1)N(Cc1cccc(F)c1)C1CCS(=O)(=O)C1 (stereo unspecified)
EC50 [6]: > 350 µM (not active)
EC50 [7]: > 350 µM (not active)

Nc1c(C(=O)Nc2nccs2)sc2nc(-c3cccs3)cc(C(F)(F)F)c12
EC50 [8]: 2.76 µM (active)
EC50 [3]: > 99 µM (inactive)
EC50 [5]: > 99 µM (inactive)

COc1ccccc1N1CCN(C(=O)C2CCCN(S(=O)(=O)c3ccc4c(c3)oc(=O)n4C)C2)CC1 (stereo unspecified)
IC50 [9]: > 20 µM (inactive)
IC50 [10]: > 20 µM (inactive)
IC50 [11]: > 20 µM (inactive)

COc1ccc2c(c1)Cc1sc(NC(=O)c3cccs3)nc1-2
EC50 [12]: 2.01 µM (active)
EC50 [13]: > 60 µM (not active)
IC50 [14]: 28.7 µM (active)

CCOC(=O)c1ccc(N2C(=O)CC(N3CCC(O)(c4ccc(Cl)cc4)CC3)C2=O)cc1 (stereo unspecified)
AC50 [15]: 2.97 µM (active)

Cc1ccc2c(CC(=O)NCC3COc4ccccc4O3)coc2c1 (stereo unspecified)
EC50 [16]: 986 nM (active)

COC(=O)CSc1cc([N+](=O)[O-])cc2c1c(C1OCCO1)nn2-c1ccccc1
EC50 [3]: > 99 µM (inactive)
EC50 [5]: > 99 µM (inactive)

COc1ccc(Br)c(C(=O)OCc2cc(=O)oc3cc(C)ccc23)c1
EC50 [3]: > 99 µM (inactive)
EC50 [5]: > 99 µM (inactive)

O=C(CSCC(=O)N1CCCCC1)Nc1nc(-c2cccs2)cs1
EC50 [16]: 595 nM (active)

Cc1nonc1NC(=O)CSc1nnc(-c2ccoc2C)n1-c1cccc(Cl)c1
EC50 [16]: 7830 nM (active)
